Data reported in publication PMC6026317, “Molecular elements in FGF19 and FGF21 defining KLB/FGFR activity and specificity” (Molecular Metabolism, 2018).

How the values were obtained:
293/KLB cells = test: Agonist pERK AlphaLISA assay in 293/KLB cells; type: cell-based, human; conditions: 10 min at 37° C, n = 3
Procedure: (§1) 293T HEK cells expressing KLB (or KL) or Hep3B cells were plated to 5–6 x 10^4 cells/well density in 96-well cell culture plate coated with poly-D-Lysine (Corning). The cells were serum starved for four hours in 0.1% BSA fraction V (ThermoFisher) containing media prior to treatment with protein and/or an antagonist peptide at the mentioned concentrations for 10 min at 37° C. For the antagonist assays, a chosen fixed dose within the range of 0.8–30 nM (depending on the cell type) of FGF21 or FGF19 stimulant was added to all the wells. BaF3 cells expressing human KLB/FGFR1c or human KLB/FGFR4-1c chimera were seeded at 5 × 10^5 cells/well density in 96-well cell culture plate and serum-starved overnight. FGF21/19 analogs were diluted in 0.02% Tween-20 containing RPMI1640 medium and the cells were treated for 15 min at 37° C. Following the respective cell treatments, the cells were lysed (with lysis buffer provided in the kit) for 10 min at room temperature on a shaker and the lysate was mixed with reaction mixture (consisting of reaction buffer, activation buffer, acceptor and donor beads provided in the kit). Phosphorylated ERK1/2 (pERK) levels were subsequently recorded by EnSpire Alpha or Envision Multilabel plate reader (Perkin Elmer). The cell assays corresponding to 293/KLB or Hep3B cells were carried out with AlphaLISA SureFire Ultra pERK1/2 (Thr 202/Tyr204) kit (Perkin Elmer), and BaF3 cells were done using AlphaScreen pERK1/2 (Thr202/Tyr204) kit (Perkin Elmer).
All cellular phosphorylation data were analyzed using 3-parameter non-linear regression curve in GraphPad Prism 7. Graphs are represented as relative maximal (100%) response of the positive control. All other test analog signals were adjusted accordingly as % values. […] Each peptide and protein analog was tested in triplicates in three independent experiments (n = 3), and normalized graphs plotted are expressed as mean ± SD unless otherwise noted.

Hep3B cells = test: Agonist pERK AlphaLISA assay in Hep3B cells; type: cell-based, human; conditions: 10 min at 37° C, n = 3
Procedure: as §1, with “Following the respective cell treatments, the cells were lysed (with lysis buffer provided in the kit) for 10 min at room temperature on a shaker and the lysate was mixed with reaction mixture (consisting of reaction buffer, activation buffer, acceptor and donor beads provided in the kit).” left out, “The cell assays corresponding to 293/KLB or Hep3B cells were carried out with AlphaLISA SureFire Ultra pERK1/2 (Thr 202/Tyr204) kit (Perkin Elmer), and BaF3 cells were done using AlphaScreen pERK1/2 (Thr202/Tyr204) kit (Perkin Elmer).” left out
All cellular phosphorylation data were analyzed using 3-parameter non-linear regression curve in GraphPad Prism 7. […] Each peptide and protein analog was tested in triplicates in three independent experiments (n = 3), and normalized graphs plotted are expressed as mean ± SD unless otherwise noted.

human FGFR1/KLB = test: Agonist pERK AlphaScreen assay in BaF3 cells, FGFR1/KLB; type: cell-based; conditions: BaF3 cells co-expressing KLB and FGFR1; 15 min at 37° C; n = 3
Text: (§2) For generating receptor specific BaF3 cell line, human FGFR1c cDNA was cloned into pMXs-IRES-Puro vector (Cell Biolabs) to generate the expression plasmid pMX-FGFR1c-IRES-Puro. Human FGFR4 sequence was re-engineered to enhance signaling by constructing chimeric cDNA encoding the extracellular region of FGFR4 fused to the intracellular region and tyrosine kinase domain of FGFR1c, and the chimeric sequence was cloned into pMX-IRES-Puro vector to generate the expression plasmid pMX-chimeric FGFR4-1c-IRES-Puro. Human KLB cDNA was cloned into pMXs-IRES-Neo vector (Cell Biolabs) to generate expression plasmid pMX-KLB-IRES-Neo. BaF3 cells were transfected with pMX-FGFR1c-IRES-Puro and pMX- FGFR4-1c chimera-IRES-Puro expression plasmids respectively by electroporation (Xcell machine, Bio-Rad, 950 μF, 370V). Cells were selected with media containing 1 μg/ml Puromycin for 10–12 days. […]
(§3) 293T HEK cells expressing KLB (or KL) or Hep3B cells were plated to 5–6 x 10^4 cells/well density in 96-well cell culture plate coated with poly-D-Lysine (Corning). […] Phosphorylated ERK1/2 (pERK) levels were subsequently recorded by EnSpire Alpha or Envision Multilabel plate reader (Perkin Elmer). […]
(§4) All cellular phosphorylation data were analyzed using 3-parameter non-linear regression curve in GraphPad Prism 7. […]

[1] = test system: human FGFR4-1c chimera/KLB; test: Agonist pERK AlphaScreen assay in BaF3 cells, FGFR4-1c chimera/KLB; type: cell-based; conditions: BaF3 cells co-expressing KLB and FGFR4-1c chimera; 15 min at 37° C; n = 3
Text: as §2, §3, §4

FGF19,A^194: FGF19 analog with single C-terminal lysine substitution to alanine
pERK agonist activity, in words (293/KLB cells): nearly tenfold more active than FGF19 | pERK agonist activity, in words (Hep3B cells): comparable | pERK agonist activity, in words (human FGFR1/KLB): enhanced signaling at the FGFR1/KLB complex by approximately ten-fold | pERK agonist activity, in words [1]: no change in bioactivity
